Tests used:
[1] = test system: Rattus norvegicus; test: Anti-inflammatory activity in Rattus norvegicus Wistar (rat) assessed as inhibition of carrageenan-induced paw edema at dose molecularly equivalent to 20 mg/kg of ibuprofen administered as po after 3 hr relative to ibuprofen; type: functional
[2] = test system: Rattus norvegicus; test: Gastrointestinal toxicity in Rattus norvegicus Wistar (rat) assessed as ulcer index at dose molecularly equivalent to 60 mg/kg of ibuprofen administered as po; type: organism-based; set-up: dose 60 mg/kg, route oral; details: in vivo
[3] = test system: Mus musculus; test: Analgesic activity in Mus musculus Swiss albino (mouse) assessed as protection against acetic acid-induced writhing effect at 20 mg/kg, po after 3 hr relative to control; type: functional
[4] = test system: Rattus norvegicus; test: Gastrointestinal toxicity in Rattus norvegicus Wistar (rat) assessed as ulcer index at 60 mg/kg, po; type: organism-based; set-up: dose 60 mg/kg, route oral; details: in vivo
[5] = test system: Rattus norvegicus; test: Anti-inflammatory activity in Rattus norvegicus Wistar (rat) assessed as inhibition of carrageenan-induced paw edema at 20 mg/kg, po after 3 hr relative to control; type: functional

Row | Structure (SMILES) | inhibition in vivo [1] [%] | UI [2] | Activity [3] [%] | UI [4] | inhibition in vivo at 20 mg/kg [5] [%]
1 | COc1cc(/C=C/C(=O)c2ccc3c(c2)CN(c2ccc(C)cc2)CO3)cc(OC)c1OC | 56.5 | – | – | – | –
2 | Cc1ccc(N2COc3ccc(C(=O)/C=C/c4ccc(Cl)cc4)cc3C2)cc1 | 63.4 | – | – | – | –
3 | Cc1ccc(N2COc3ccc(C(=O)/C=C/c4ccc(Cl)cc4Cl)cc3C2)cc1 | 71.9 | 0.17 | 55.47 | – | –
4 | COc1ccc(N2COc3ccc(C(=O)/C=C/c4ccccc4Cl)cc3C2)cc1 | 63.4 | – | – | – | –
5 | COc1ccc(/C=C/C(=O)c2ccc3c(c2)CN(c2ccc(OC)cc2)CO3)cc1 | 61.2 | – | – | – | –
6 | COc1ccc(N2COc3ccc(C(=O)/C=C/c4ccccc4O)cc3C2)cc1 | 55.7 | – | – | – | –
7 | COc1ccc(N2COc3ccc(C(=O)/C=C/c4cc(OC)c(OC)c(OC)c4)cc3C2)cc1 | 62.2 | – | – | – | –
8 | COc1ccc(N2COc3ccc(C(=O)/C=C/c4ccc(Cl)cc4)cc3C2)cc1 | 67.4 | 0.25 | 52.22 | – | –
9 | COc1ccc(N2COc3ccc(C(=O)/C=C/c4ccc(Cl)cc4Cl)cc3C2)cc1 | 74.9 | 0.08 | 57.38 | – | –
10 | Cc1ccc(N2COc3ccc(C(=O)/C=C/c4ccccc4Cl)cc3C2)cc1 | 60.4 | – | – | – | –
11 | COc1ccc(/C=C/C(=O)c2ccc3c(c2)CN(c2ccc(C)cc2)CO3)cc1 | 70.4 | 0.17 | 54.27 | – | –
12 | Cc1ccc(N2COc3ccc(C(=O)/C=C/c4ccccc4O)cc3C2)cc1 | 51 | – | – | – | –
13 | CC(C)Cc1ccc(C(C)C(=O)O)cc1 (stereo not drawn) [IBUPROFEN] | – | – | 63.06 | 1 | 82.3

From ChEMBL document CHEMBL3046542, “Synthesis of some new 3,4-dihydro-2H-1,3-benzoxazines under microwave irradiation in solvent-free conditions and their biological activity” (Med Chem Res, 2011)
